In patent US8394967B2, “Antioxidant inflammation modulators: C-17 homologated oleanolic acid derivatives” (Reata Pharmaceuticals, Inc., priority 2008, dated 2013) one finds IC50 and fold induction data, which are given here for 15 molecules.

Counter-ions that a name gives are not always drawn. Like-named read-outs stand apart in the source and are kept apart here.

Experiment [1] relates to NO production in RAW264.7 macrophages. In words: Inhibition of NO production in IFNγ-treated RAW264.7 macrophages (Griess reagent). The experiment is classed as cell-based, mouse. The note with it: then 20 ng/ml IFNγ for 24 hours. How it is done:
(§1) FIGS. 1-4, 6 and 8. Inhibition of NO Production. RAW264.7 macrophages were pre-treated with DMSO or drugs at various concentrations (nM) for 2 hours, then treated with 20 ng/ml IFNγ for 24 hours. NO concentration in media was determined using a Griess reagent system; cell viability was determined using WST-1 reagent.
(§2) Nitric Oxide production and cell viability. RAW264.7 macrophages were pre-treated with DMSO or drugs for 2 hours, then treated with recombinant mouse IFNγ (Sigma) for 24 hours. NO concentration in media was determined using the Griess reagent system (Promega). Cell viability was determined using WST-1 reagent (Roche).

The next experiment has as its system RAW264.7 macrophages. In words: Cell viability of RAW264.7 macrophages (WST-1 reagent). As to conditions: cell viability, RAW264.7, 20 ng/ml IFNγ 24 hours, WST-1 reagent, read-out: RAW264.7 (20 ng/ml IFNγ) WST-1 IC50. The experiment is classed as cell-based, mouse. Here is the method:
as §1, §2

For a further experiment, the system named is HO-1. In words: Nrf2 target gene induction, MDA-MB-435 (qPCR): HO-1. The experiment is classed as cell-based. The note with it: Homo sapiens; MDA-MB-435, 250 nM, 16 hours, mRNA by qPCR. How it is done:
(§3) Nrf2 target gene induction. MDA-MB-435 human melanoma cells were treated with vehicle (DMSO) or the indicated compounds and concentrations for 16 hours. HO-1, thioredoxin reductase-1 (TrxR1), γ-glutamylcysteine synthetase (γ-GCS), and ferritin heavy chain mRNA levels were quantified using qPCR and were normalized relative to a DMSO-treated sample run in parallel. Values are averages of duplicate wells. Primer sequences are as follows.

The subject of the next experiment is NQO1. Put plainly: Nrf2 target gene induction, MDA-MB-435 (qPCR): NQO1. As to conditions: Homo sapiens; MDA-MB-435, 250 nM, 16 hours, mRNA by qPCR. It counts as cell-based.
The subject of a further experiment is γ-GCS. Put plainly: Nrf2 target gene induction, MDA-MB-435 (qPCR): γ-GCS. The experiment is classed as cell-based. As to conditions: Homo sapiens; MDA-MB-435, 250 nM, 16 hours, mRNA by qPCR. Here is the method: as §3
The mark [2] stands for this setting: Mus musculus, RAW264.7, RAW264.7 macrophages pre-treated 2 hours.
[3] abbreviates: RAW264.7 macrophages pre-treated 2 hours.

In the case of `CC1(C)CC[C@]2(CNC(=O)OC(C)(C)C)CC[C@]3(C)[C@H](C(=O)CC4[C@@]5(C)C=C(C#N)C(=O)C(C)(C)C5CC[C@]43C)[C@@H]2C1` (stereo partly drawn) [Compound 63253, tert-butyl((4aS,6aR,6bR,12aR,14aR,14bS)-11-cyano-2,2,6a,6b,9,9,12a-heptamethyl-10,14-dioxo-1,2,3,4,4a,5,6,6a,6b,7,8,8a,9,10,12a,12b,13,14,14a,14b-icosahydropicen-4a-yl)methylcarbamate], the IC50 in experiment [1] (setting [2]) is roughly 20 nM; with RAW264.7 macrophages (Mus musculus, RAW264.7, 24 h), roughly 200 nM. For the same molecule, the fold induction at 0.25 µM amounted to 2 in the experiment with HO-1, 1.5 in the experiment on NQO1 and 3 in the experiment with γ-GCS.
Taken in the same sequence, the figures for `CC1(C)CC[C@]2(CCO)CC[C@]3(C)[C@H](C(=O)C[C@@H]4[C@@]5(C)C=C(C#N)C(=O)C(C)(C)[C@@H]5CC[C@]43C)[C@@H]2C1` [Compound 63231, (4aR,6aR,6bR,8aR,12aS,12bR,14aR,14bR)-8a-(2-hydroxyethyl)-4,4,6a,6b,11,11,14b-heptamethyl-3,13-dioxo-3,4,4a,5,6,6a,6b,7,8,8a,9,10,11,12,12a,12b,13,14,14a,14b-icosahydropicene-2-carbonitrile] were roughly 15 nM, greater than 200 nM, 1.2, 2.1 and 5.
As for `CC1(C)CC[C@]2(CNS(=O)(=O)CC(F)(F)F)CC[C@]3(C)[C@H](C(=O)C[C@@H]4[C@@]5(C)C=C(C#N)C(=O)C(C)(C)[C@@H]5CC[C@]43C)[C@@H]2C1` [Compound 63225, N-(((4aS,6aR,6bR,8aR,12aR,12bR,14aR,14bS)-11-cyano-2,2,6a,6b,9,9,12a-heptamethyl-10,14-dioxo-1,2,3,4,4a,5,6,6a,6b,7,8,8a,9,10,12a,12b,13,14,14a,14b-icosahydropicen-4a-yl)methyl)-2,2,2-trifluoroethanesulfonamide], the IC50 is roughly 20 nM in experiment [1] (setting [2]) and greater than 200 nM in the experiment on RAW264.7 macrophages (Mus musculus, RAW264.7, 24 h). Besides, the results for the fold induction at 0.25 µM with HO-1, in the experiment on NQO1 and in the experiment with γ-GCS were 4, 2.4 and 6.5, respectively.
Turning to `CC1(C)CC[C@]2([C@H]3COCO3)CC[C@]3(C)[C@H](C(=O)C[C@@H]4[C@@]5(C)C=C(C#N)C(=O)C(C)(C)[C@@H]5CC[C@]43C)[C@@H]2C1` [Compound 63285, (4aR,6aR,6bR,8aS,12aS,12bR,14aR,14bR)-8a-((S)-1,3-dioxolan-4-yl)-4,4,6a,6b,11,11,14b-heptamethyl-3,13-dioxo-3,4,4a,5,6,6a,6b,7,8,8a,9,10,11,12,12a,12b, 13,14,14a,14b-icosahydropicene-2-carbonitrile], the IC50 was roughly 15 nM in experiment [1] (setting [2]) and greater than 200 nM with RAW264.7 macrophages (Mus musculus, RAW264.7, 24 h).
Regarding `CC1(C)CC[C@]2(CNCC#N)CC[C@]3(C)[C@H](C(=O)C[C@@H]4[C@@]5(C)C=C(C#N)C(=O)C(C)(C)[C@@H]5CC[C@]43C)[C@@H]2C1` [Compound 63218, (4aR,6aR,6bR,8aS,12aS,12bR,14aR,14bR)-8a-((cyanomethylamino)methyl)-4,4,6a,6b,11,11,14b-heptamethyl-3,13-dioxo-3,4,4a,5,6,6a,6b,7,8,8a,9,10,11,12,12a,12b,13,14,14a,14b-icosahydropicene-2-carbonitrile], the IC50 in experiment [1] (setting [2]) is roughly 25 nM; in the experiment with RAW264.7 macrophages (Mus musculus, RAW264.7, 24 h), greater than 200 nM. Further, the fold induction at 0.25 µM is 3 in the experiment on HO-1, 3.4 in the experiment with NQO1 and 10 in the experiment with γ-GCS.
The like results for `COC[C@]12CCC(C)(C)C[C@H]1[C@H]1C(=O)C[C@@H]3[C@@]4(C)C=C(C#N)C(=O)C(C)(C)[C@@H]4CC[C@@]3(C)[C@]1(C)CC2` [Compound 63228, (4aR,6aR,6bR,8aS,12aS,12bR,14aR,14bR)-8a-(methoxymethyl)-4,4,6a,6b,11,11,14b-heptamethyl-3,13-dioxo-3,4,4a,5,6,6a,6b,7,8,8a,9,10,11,12,12a,12b,13,14,14a,14b-icosahydropicene-2-carbonitrile] were, in that order, roughly 25 nM, 200 nM, 2, 2 and 4.
Regarding `CC1(C)CC[C@]2(C3CO3)CC[C@]3(C)[C@H](C(=O)C[C@@H]4[C@@]5(C)C=C(C#N)C(=O)C(C)(C)[C@@H]5CC[C@]43C)[C@@H]2C1` (single isomer, unassigned) [Compound 63286], the IC50 was roughly 13 nM in experiment [1] (setting [3]) and greater than 200 nM in the experiment with RAW264.7 macrophages.
On to `CC1(C)CC[C@]2([C@@H]3CO3)CC[C@]3(C)[C@H](C(=O)C[C@@H]4[C@@]5(C)C=C(C#N)C(=O)C(C)(C)[C@@H]5CC[C@]43C)[C@@H]2C1` [Compound 63275, (4aR,6aR,6bR,8aS,12aS,12bR,14aR,14bR)-4,4,6a,6b,11,11,14b-heptamethyl-8a-((R)-oxiran-2-yl)-3,13-dioxo-3,4,4a,5,6,6a,6b,7,8,8a,9,10,11,12,12a,12b,13,14,14a,14b-icosahydropicene-2-carbonitrile], for which the IC50 in experiment [1] (setting [2]) was roughly 15 nM; in the experiment with RAW264.7 macrophages (Mus musculus, RAW264.7, 24 h) it was greater than 200 nM.
Taken in the same sequence, the figures for `CC1(C)CC[C@]2(C[S+]([O-])c3ccccc3)CC[C@]3(C)[C@H](C(=O)C[C@@H]4[C@@]5(C)C=C(C#N)C(=O)C(C)(C)[C@@H]5CC[C@]43C)[C@@H]2C1` (stereo partly drawn) [Compound 63255, (4aR,6aR,6bR,8aS,12aS,12bR,14aR,14bR)-4,4,6a,6b,11,11,14b-heptamethyl-3,13-dioxo-8a-(phenylsulfinylmethyl)-3,4,4a,5,6,6a,6b,7,8,8a,9,10,11,12,12a,12b,13,14,14a,14b-icosahydropicene-2-carbonitrile] were roughly 50 nM and greater than 200 nM.
Take `Cc1cc(CNC[C@]23CCC(C)(C)C[C@H]2[C@H]2C(=O)C[C@@H]4[C@@]5(C)C=C(C#N)C(=O)C(C)(C)[C@@H]5CC[C@@]4(C)[C@]2(C)CC3)no1` [Compound 63232, (4aR,6aR,6bR,8aS,12aS,12bR,14aR,14bR)-4,4,6a,6b,11,11,14b-heptamethyl-8a-(((5-methylisoxazol-3-yl)methylamino)methyl)-3,13-dioxo-3,4,4a,5,6,6a,6b,7,8,8a,9,10,11,12,12a,12b,13,14,14a,14b-icosahydropicene-2-carbonitrile]: the IC50 in experiment [1] (setting [2]) is roughly 20 nM; in the experiment on RAW264.7 macrophages (Mus musculus, RAW264.7, 24 h) it was greater than 200 nM. Further, the fold induction at 0.25 µM in the experiment on HO-1 was 5; with NQO1, 3.8; with γ-GCS it was 13.6.
Turning to `CC1(C)CC[C@]2(CS(=O)(=O)c3ccccc3)CC[C@]3(C)[C@H](C(=O)C[C@@H]4[C@@]5(C)C=C(C#N)C(=O)C(C)(C)[C@@H]5CC[C@]43C)[C@@H]2C1` [Compound 63266, (4aR,6aR,6bR,8aS,12aS,12bR,14aR,14bR)-4,4,6a,6b,11,11,14b-heptamethyl-3,13-dioxo-8a-(phenylsulfonylmethyl)-3,4,4a,5,6,6a,6b,7,8,8a,9,10,11,12,12a,12b,13,14,14a,14b-icosahydropicene-2-carbonitrile], the IC50 in experiment [1] (setting [2]) is roughly 30 nM; in the experiment on RAW264.7 macrophages (Mus musculus, RAW264.7, 24 h), greater than 200 nM.
Taken in the same sequence, the figures for `CC1(C)CC[C@]2(COC(=O)C(C)(C)C)CC[C@]3(C)[C@H](C(=O)C[C@@H]4[C@@]5(C)C=C(C#N)C(=O)C(C)(C)[C@@H]5CC[C@]43C)[C@@H]2C1` [Compound 63297, ((4aS,6aR,6bR,8aR,12aR,12bR,14aR,14bS)-11-cyano-2,2,6a,6b,9,9,12a-heptamethyl-10,14-dioxo-1,2,3,4,4a,5,6,6a,6b,7,8,8a,9,10,12a,12b,13,14,14a,14b-icosahydropicen-4a-yl)methyl pivalate] were roughly 50 nM and roughly 200 nM.
Taken in the same sequence, the figures for `C#C[C@]12CCC(C)(C)C[C@H]1[C@H]1C(=O)C[C@@H]3[C@@]4(C)C=C(C#N)C(=O)C(C)(C)[C@@H]4CC[C@@]3(C)[C@]1(C)CC2` [Compound 63303, (4aR,6aR,6bR,8aS,12aS,12bR,14aR,14bR)-8a-ethynyl-4,4,6a,6b,11,11,14b-heptamethyl-3,13-dioxo-3,4,4a,5,6,6a,6b,7,8,8a,9,10,11,12,12a,12b,13,14,14a,14b-icosahydropicene-2-carbonitrile] were roughly 18 nM and roughly 150 nM.
In the case of `CC1(C)CC[C@]2(C(O)CBr)CC[C@]3(C)[C@H](C(=O)C[C@@H]4[C@@]5(C)C=C(C#N)C(=O)C(C)(C)[C@@H]5CC[C@]43C)[C@@H]2C1` (single isomer, unassigned) [Compound 63284], the figures for the IC50 (in experiment [1] (setting [3]); with RAW264.7 macrophages) were roughly 15 nM and roughly 200 nM, respectively.
As for `CC1(C)CC[C@]2(CN)CC[C@]3(C)[C@H](C(=O)CC4[C@@]5(C)C=C(C#N)C(=O)C(C)(C)C5CC[C@]43C)[C@@H]2C1` (stereo partly drawn) [63214 salt, (6aR,6bR,8aS,12aS,12bR,14bR)-8a-(aminomethyl)-4,4,6a,6b,11,11,14b-heptamethyl-3,13-dioxo-3,4,4a,5,6,6a,6b,7,8,8a,9,10,11,12,12a,12b,13,14,14a,14b-icosahydropicene-2-carbonitrile, trifluoroacetic acid salt], the IC50 in experiment [1] (setting [2]) was roughly 30 nM; in the experiment with RAW264.7 macrophages (Mus musculus, RAW264.7, 24 h) it was greater than 200 nM.
